Source: patent publication US3971737A, “[2-Methyl-Ala^6 ]LRH” (American Home Products Corporation, priority 1975, dated 1976)
Values joined by “and” are separate entries in the source; they are usually repeats but may differ in a detail not shown here. Equal entries are not always repeated. “Also recorded” adds a separate entry of the source.

Tests used:
[1] = system: luteinizing hormone (LH) in the blood serum of ovariectomized rats; test: LH release in ovariectomized rats pretreated with estradiol and progesterone; serum LH by radioimmunoassay; format: in vivo, rat
Description: This fact was established, in vivo, by measuring the increase of LH (before and after administration of [2-methyl-Ala^6 ]LRH) in the blood serum of ovariectomized rats pretreated with estradiol and progesterone according to the procedure of Schally et al., J. Biol. Chem. 246, 7230 (1971). The LH concentration in the blood serum was determined by radioimmunoassy according to the procedure of Berson et al., Metabolism 13, 1135 (1964). The results of this test are as follows: Dose nanograms ng LH/ml Serum % Dif- (ng) Animal No. Pre Post erence ______________________________________ 10 1 404.92 932.87 […] 10 2 541.37 1062.03 96.17 10 3 441.25 1568.03 255.43 10 4 459.07 1082.72 135.85 10 5 759.11 1681.84 111.52 No. of observations 5 5 5 Mean 523.34 1265.56 145.87 Standard error 70.34 150.08 28.28 T-value 5.1586 P-value 0.0080 ______________________________________

[2] = system: Sprague-Dawley rats (pregnancy); details: found by Alan Corbin (copending application Ser. No. 561,524), cited from earlier work

CC(C)C[C@H](NC(=O)C(C)(C)NC(=O)[C@H](Cc1ccc(O)cc1)NC(=O)[C@H](CO)NC(=O)[C@H](Cc1c[nH]c2ccccc12)NC(=O)[C@H](Cc1c[nH]cn1)NC(=O)[C@@H]1CCC(=O)N1)C(=O)N[C@@H](CCCNC(=N)N)C(=O)N1CCC[C@H]1C(=O)NCC(N)=O [[2-methyl-Ala^6]LRH, L-(5-oxoprolyl)-L-histidyl-L-tryptophyl-L-seryl-L-tyrosyl-2-methylalanyl-L-leucyl-L-arginyl-L-prolylglycinamide]
ng LH/ml Serum, Post (Mean) ([1]; dose 10 ng, mean of 5 ovariectomized, estradiol/progesterone-pretreated rats, after administration (pre mean 523.34), standard error 150.08): 1265.56 ng LH/ml | % Difference of serum LH, pre vs post (Mean) ([1]; dose 10 ng, mean of 5 rats, standard error 28.28, P-value 0.0080): 145.87% | % Difference of serum LH, pre vs post (individual animals No. 1-5) ([1]; dose 10 ng, single animals 1 to 5 in order): 255.43% and 135.85% and 111.52% and 103.38% and 96.17% | ng LH/ml Serum, Post (individual animals No. 1-5) ([1]; dose 10 ng, single animals 1 to 5 in order, after administration): 932.87 ng LH/ml and 1062.03 ng LH/ml and 1568.03 ng LH/ml and 1082.72 ng LH/ml and 1681.84 ng LH/ml | LH-releasing / LRH agonist activity (in words) ([1]; in vivo, ovariectomized rats pretreated with estradiol and progesterone): active releaser of luteinizing hormone (LH); also recorded: active LRH agonist | pregnancies prevented ([2]; 500 micrograms per day): 100% | claudogenic/interceptive activity (in words) [2]: active claudogenic/interceptive agent
